Results published in ChEMBL document CHEMBL1155245, “Diazen-1-ium-1,2-diolated nitric oxide donor ester prodrugs of 5-(4-carboxymethylphenyl)-1-(4-methanesulfonylphenyl)-3-trifluoromethyl-1H-pyrazole and its aminosulfonyl analog: Synthesis, biological evaluation and nitric oxide release studies” (Bioorg Med Chem, 2009).

Experiments:
Serum = test: Induction of nitric oxide release in rat serum containing phosphate buffer at pH 7.4; format: functional; set-up: concentration or dose not given beside the values
[1] = target: T1, Prostaglandin G/H synthase 1 (Ovis aries, UniProt P05979)
T1 sequence (P05979 whole entry): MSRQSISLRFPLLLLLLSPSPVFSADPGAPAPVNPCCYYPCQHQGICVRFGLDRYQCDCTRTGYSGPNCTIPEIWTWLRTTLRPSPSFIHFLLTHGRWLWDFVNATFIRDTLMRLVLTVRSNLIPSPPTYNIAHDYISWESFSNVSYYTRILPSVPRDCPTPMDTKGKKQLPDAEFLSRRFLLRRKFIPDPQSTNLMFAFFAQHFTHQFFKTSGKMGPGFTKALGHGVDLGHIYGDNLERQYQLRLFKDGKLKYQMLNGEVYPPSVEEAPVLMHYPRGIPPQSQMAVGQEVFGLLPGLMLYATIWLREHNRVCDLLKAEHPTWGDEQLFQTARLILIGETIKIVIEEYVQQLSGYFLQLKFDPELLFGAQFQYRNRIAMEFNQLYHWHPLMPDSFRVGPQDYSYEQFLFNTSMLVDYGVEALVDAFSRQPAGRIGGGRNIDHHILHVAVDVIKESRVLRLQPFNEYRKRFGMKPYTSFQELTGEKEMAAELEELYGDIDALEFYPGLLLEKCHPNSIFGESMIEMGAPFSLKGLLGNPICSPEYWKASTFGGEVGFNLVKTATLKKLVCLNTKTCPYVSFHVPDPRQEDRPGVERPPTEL
Description: Inhibition of ovine COX1 by enzyme immunoassay

[2] = Induction of nitric oxide release in phosphate buffer at pH 7.4; format: physicochemical
Rattus norvegicus [3] = test: Antiinflammatory activity in po dosed rat assessed as inhibition of carrageenan-induced paw edema after 3 hrs; format: functional
Rattus norvegicus [4] = organism: Rattus norvegicus; test: animal or person; format: functional; conditions: 3 h
[5] = Selectivity ratio of IC50 for ovine COX1 to IC50 for human COX2

IC50 [1] [µM] | Activity [2] [%] | Ratio IC50 [5] | SMILES | Activity (Serum) [%] | ED50 (Rattus norvegicus [3]) [µmol/kg] | inhibition in vivo at 113.8 µmol/kg (Rattus norvegicus [4]) [%]
8.1 |  |  | NS(=O)(=O)c1ccc(-n2nc(C(F)(F)F)cc2-c2ccc(CC(=O)O)cc2)cc1 |  | 114 | 50
35.4 | 7.2 |  | CC(=O)OCO/N=[N+](\[O-])N(C)CCOC(=O)Cc1ccc(-c2cc(C(F)(F)F)nn2-c2ccc(S(N)(=O)=O)cc2)cc1 | 74.6 |  | 55.8
65.2 |  |  | CS(=O)(=O)c1ccc(-n2nc(C(F)(F)F)cc2-c2ccc(CC(=O)O)cc2)cc1 |  | 216 | 

Further lines, the compound ahead of its results:

SMILES | IC50 [1] [µM] | Activity [2] [%] | Ratio IC50 [5] | Activity (Serum) [%] | ED50 (Rattus norvegicus [3]) [µmol/kg] | inhibition in vivo at 113.8 µmol/kg (Rattus norvegicus [4]) [%]
CC(=O)OCO/N=[N+](\[O-])N(C)CCOC(=O)Cc1ccc(-c2cc(C(F)(F)F)nn2-c2ccc(S(C)(=O)=O)cc2)cc1 | 8.2 | 6.9 |  | 72.2 |  | 
CC(=O)OCO/N=[N+](\[O-])N1CCC[C@H]1COC(=O)Cc1ccc(-c2cc(C(F)(F)F)nn2-c2ccc(S(C)(=O)=O)cc2)cc1 | 11.8 | 5 |  | 62.9 |  | 
CC(=O)OCO/N=[N+](\[O-])N1CCC[C@H]1COC(=O)Cc1ccc(-c2cc(C(F)(F)F)nn2-c2ccc(S(N)(=O)=O)cc2)cc1 | 13.4 | 5.4 | 14.4 | 59.6 |  | 46.5
CN(CCO)/[N+]([O-])=N\O |  | 84.5 |  | 84.8 |  | 
CC(=O)Oc1ccccc1C(=O)O [ASPIRIN] |  |  |  |  | 714 | 
[O-]/[N+](=N\O)N1CCC[C@H]1CO |  | 84.5 |  | 85 |  | 
